The results in this text go back to US12590118B2, “Salt and crystal form of steroid derivative regulator” (Shanghai Hansoh Biomedical Co., Ltd., priority 2019, dated 2026).

Assay [1] has as its target GABA-A receptor. Briefly: 35S-TBPS binding assay (GABAA receptor binding ability assay). Also noted: species or system Sprague-Dawley rat. As to conditions: rat cerebral cortex cell membrane, 5 μM GABA, 2 nM 35S-TBPS; read-out: IC50 on inhibiting the TBPS binding activity, 35S-TBPS bindng assay. A digest of the protocol:
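Male Sprague-Dawley rat cerebral cortex membranes in PBS, preincubated with compound (1% DMSO, 8-point 3-fold series) 5 min at 25° C, then GABA 5 μM final 5 min, then 2 nM 35S-TBPS for 20 h at 4° C. Bound radioactivity filtered on PEI-treated GF/C and counted. % inhibition relative to DMSO and 10 μM P026-2 controls; IC50 from 4-parameter fit.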

Assay [2] relates to ICR mice. Put plainly: Forced swimming model in mice. It counts as in vivo. As to conditions: for Mean (immobility, %): floating time/240 s; for immobility time during the latter four minutes compared with that of the model group: forced swimming, ICR mice. A digest of the protocol:
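Male ICR mice (25-35 g), 12 per group, dosed intragastrically at brain Tmax with 10 mg/kg or 5 mg/kg p.o. in 0.5% CMC-Na + 1% Tween 80. Forced swim 0.5-1 h post-dose for 6 min in 25-26° C. water, 18 cm deep. Immobility over last 4 min, given as floating time percentage of 240 s.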

A word on the IC50: it is the concentration that inhibits the measured activity by half.

In the case of `C[C@@]1(O)CC[C@H]2[C@H](CC[C@@H]3[C@@H]2CC[C@@]2(C)[C@H]3[C@@H]3C[C@@H]3[C@@H]2C(=O)Cn2ccc(C#N)n2)C1` [Example 2, 1-(2-((2R,4aS,4bR,6aS,7S,7aS,8aR,8bR,8cR,10aR)-2-Hydroxy-2,6a-dimethyloctadecahydrocyclopropa[4,5]cyclopenta[1,2-a]phenanthren-7-yl)-2-oxoethyl)-1H-pyrazole-3-carbonitrile], the IC50 in assay [1] came out at 14.9 nM. The “Mean (immobility, %)” value in assay [2] (dose 10 mpk p.o.) is 28.50%. Also, the “immobility time during the latter four minutes compared with that of the model group” value in assay [2] is “very significantly different”.

Turning to `C[C@@H]1C[C@H](C(=O)Cn2ccc(C#N)n2)[C@@]2(C)CC[C@H]3[C@@H](CC[C@@H]4C[C@](C)(O)CC[C@@H]43)[C@H]12` [Example 40, 1-(2-((3R,5R,8R,9R,10S,13S,14S,15R,17S)-3-Hydroxy-3,13,15-trimethylhexadecahydro-1H-cyclopenta[a]phenanthren-17-yl)-2-oxoethyl)-1H-pyrazole-3-carbonitrile], the IC50 in assay [1] came out at 8.2 nM. The “Mean (immobility, %)” value in assay [2] (dose 10 mpk p.o.) amounted to 35.30%. In addition, the “Mean (immobility, s)” value in assay [2] (dose 10 mpk p.o., latter four minutes of 6 min swim) was determined as 84.90 s. In addition, in assay [2], the “immobility time during the latter four minutes compared with that of the model group” value is recorded as “very significantly different”.
